Assay results published in article PMC7922224, “Searching for Small Molecules as Antibacterials: Non-Cytotoxic Diarylureas Analogues of Triclocarban” (Antibiotics, 2021).
≈ marks a conversion by molar mass, not a printed value.

Key:
P. aeruginosa ATCC 27853 = test: MIC by broth microdilution (CLSI); format: cell-based; details: Gram-negative, 37 °C, 24 h, Mueller Hinton Broth; for MIC: Pseudomonas aeruginosa, ATCC27853
Experimental: (§1) The in vitro Minimum Inhibitory Concentrations (MICs, μg/mL) were determined by the broth microdilution method according to the Clinical Laboratory Standards Institute (CLSI) guidelines. MIC values were recorded as the lowest concentration of compounds at which there was no optically detectable microorganism growth and evaluated by comparing the growth in each well visually with that of the growth in the control well for bacteria. All compounds were dissolved in dimethyl sulfoxide (DMSO) and were tested in a final concentration range of from 512 to 2 µg/mL. MICs for the reference antibiotic norfloxacin against quality control strains were used to confirm the validity of the screen. According to the CLSI guidelines, diphenylureas were tested in vitro against a panel of Gram-positive and Gram-negative bacteria belonging to the ATCC collection using the standard microdilution test for the determination of MICs. MICs of the synthesised compounds along with the parent compound TCC and with the standard antibiotic norfloxacin are listed in Table 1. The compounds were also analyzed in terms of molecular mass, logP (Table 1), number of hydrogen-bond donors and number of hydrogen-bond acceptors, and most of them obeyed Lipinski’s rule. […] Based on our results, it seems that the 3,4-dichloro-disubstitution pattern, which is present in TCC, is not crucial for activity. […] Moreover, the activity against Enterococcus faecalis was interesting. E. faecalis is a ubiquitous member of the healthy human gut microbiota and also a common opportunistic pathogen and leading cause of nosocomial infections. It has a high incidence for most infections, and the case numbers have been increasing in recent decades, likely due to its greater ability to persist in healthcare facilities and its higher abundance in the human gut microbiome. Kim et al. (2016) compared the bactericidal effects of plain and antibacterial soap containing 0.3% TCC. The authors found no significative difference between the effects of plain and medicated soap at either temperature, with the only exception of E. faecalis ATCC 19433 at 40 °C.
(§2) MICs (μg/mL) were determined by the broth microdilution method, using 96-well plates, according to CLSI [26]. Stock solutions of the investigated compounds were obtained by setting the concentration at the maximum possible value. Then, the stock solutions were diluted 1:10 with Mueller Hinton Broth (Oxoid, Italy). Afterwards, twofold serial dilutions in the suitable test medium were carried out to obtain a set of concentrations from 512 to 2 µg/mL in the wells. To obtain the stock solution, DMSO (100%) was employed as diluent. The following bacteria strains, available as freeze-dried discs, belonging to the ATCC collection, were used: Gram-positive: S. aureus ATCC 29213, 6538, and 6538P, E. faecalis ATCC 29212; Gram-negative: K. pneuomoniae ATCC 13883, P. aeruginosa ATCC 27853. To conserve the purity of cultures and to enable their reproducibility, cryovials of all microbial strains in the medium were set up and stored at −80 °C. Pre-cultures of each bacterial strain were prepared in Mueller Hinton Broth (MHB) and incubated at 37 °C for 3–5 h. The turbidity of bacterial cell suspension was calibrated to 0.5 McFarland Standard by the spectrophotometric method (OD 625 nm 0.08–0.10), as indicated in the CLSI protocol M7-A9 and, further, the standardized suspension was diluted (1:100) with MHB to reach 1–2 × 10^6 CFU/mL. All wells were seeded with 100 µl of the mentioned final inoculum, and some wells contained only inoculated broth as control growth. […] The MICs were determined by using the assay repeated twice in triplicate. Throughout the study, norfloxacin was used as reference antibiotic. Appropriate controls involved norfloxacin for bacteria as international reference standard. […]

K. pneumoniae ATCC 13883 = test: MIC by broth microdilution (CLSI); format: cell-based; details: Gram-negative, 37 °C, 24 h, Mueller Hinton Broth; for MIC: Klebsiella pneumoniae, ATCC13883, read-out: MIC K.p. 13883
Experimental: as §1, §2

E. faecalis ATCC 29212 = test: MIC by broth microdilution (CLSI); format: cell-based, Enterococcus faecalis; details: Gram-positive, 37 °C, 24 h, Mueller Hinton Broth; for MIC: Enterococcus faecalis, ATCC29212, read-out: MIC E.f. 29212
Experimental: as §1, §2

Staphylococcus aureus = test: MIC by broth microdilution, S. aureus (strain not given); format: cell-based; details: strain not specified (best value among the ATCC strains), read-out: MIC against S. aureus
Experimental: as §1, §2

E. coli 25922 = test: MIC by broth microdilution (CLSI); format: cell-based; details: Escherichia coli, Gram-negative, 37 °C, 24 h, Mueller Hinton Broth
S. aureus ATCC 6538 = test: MIC by broth microdilution (CLSI); format: cell-based, Staphylococcus aureus; details: Gram-positive, 37 °C, 24 h, Mueller Hinton Broth; for MIC: Staphylococcus aureus, ATCC6538
Experimental: as §1, §2

S. aureus ATCC 29213 = test: MIC by broth microdilution (CLSI); format: cell-based, Staphylococcus aureus; details: Gram-positive, 37 °C, 24 h, Mueller Hinton Broth; for MIC: Staphylococcus aureus, ATCC29213
Experimental: as §1, §2

S. aureus ATCC 6538P = test: MIC by broth microdilution (CLSI); format: cell-based, Staphylococcus aureus; details: Gram-positive, 37 °C, 24 h, Mueller Hinton Broth; for MIC: Staphylococcus aureus, ATCC6538P
Experimental: as §1, §2

Row | Molecule | MIC (P. aeruginosa ATCC 27853) [µg/mL] | MIC (K. pneumoniae ATCC 13883) [µg/mL] | MIC (E. faecalis ATCC 29212) [µg/mL] | MIC (Staphylococcus aureus) [µg/mL] | MIC (E. coli 25922) [µg/mL] | MIC (S. aureus ATCC 6538) [µg/mL] | MIC (S. aureus ATCC 29213) [µg/mL] | MIC (S. aureus ATCC 6538P) [µg/mL] | melting point [°C] | MIC P. a. 27853 (P. aeruginosa ATCC 27853) [µg/mL] | MIC K.p. 13883 (K. pneumoniae ATCC 13883) [µg/mL] | MIC E.f. 29212 (E. faecalis ATCC 29212) [µg/mL] | MIC S.a. 6538 (S. aureus ATCC 6538) [µg/mL] | MIC S.a. 29213 (S. aureus ATCC 29213) [µg/mL] | MIC S.a. 6538P (S. aureus ATCC 6538P) [µg/mL]
1 | O=C(Nc1ccccc1)Nc1ccc(Cl)c(Cl)c1 [1ef, 1-(3,4-Dichlorophenyl)-3-phenylurea] | 256 (≈ 911 µM) | > 256 | 128 (≈ 455 µM) | 16 (≈ 56.9 µM) | > 256 | 16 (≈ 56.9 µM) | 256 (≈ 911 µM) | 128 (≈ 455 µM) | – | – | – | – | – | – | –
2 | Cc1ccc(NC(=O)Nc2ccccc2C)cc1 [1ag, 1-(2-Methylphenyl)-3-(4-methylphenyl)urea] | > 256 | > 256 | 128 (≈ 533 µM) | – | > 256 | 128 (≈ 533 µM) | 256 (≈ 1070 µM) | 256 (≈ 1070 µM) | – | – | – | – | – | – | –
3 | COc1ccc(NC(=O)Nc2ccc(C)cc2)cc1 [1ad, 1-(4-Methoxyphenyl)-3-(p-tolyl)urea] | > 256 | > 256 | 128 (≈ 499 µM) | 32 (≈ 125 µM) | > 256 | 32 (≈ 125 µM) | 128 (≈ 499 µM) | 32 (≈ 125 µM) | – | – | – | – | – | – | –
4 | Cc1ccc(NC(=O)Nc2ccccc2)cc1 [1af, 1-(4-Methylphenyl)-3-phenylurea] | > 256 | > 256 | 64 (≈ 283 µM) | – | > 256 | 64 (≈ 283 µM) | 128 (≈ 566 µM) | 128 (≈ 566 µM) | – | – | – | – | – | – | –
5 | Cc1ccccc1NC(=O)Nc1ccc(F)c(F)c1 [1gj, 1-(3,4-Difluorophenyl)-3-(2-methylphenyl)urea] | > 256 | > 256 | 64 (≈ 244 µM) | – | > 256 | 64 (≈ 244 µM) | > 256 | 128 (≈ 488 µM) | – | – | – | – | – | – | –
6 | COc1ccc(NC(=O)Nc2ccc(Cl)c(Cl)c2)cc1 [1de, 1-(3,4-Dichlorophenyl)-3-(4-methoxyl)phenylurea] | > 256 | > 256 | 64 (≈ 206 µM) | – | > 256 | 64 (≈ 206 µM) | 128 (≈ 411 µM) | 64 (≈ 206 µM) | – | – | – | – | – | – | –
7 | Cc1ccc(NC(=O)Nc2ccc(Cl)c(Cl)c2)cc1 [1ae, 1-(3,4-Dichlorophenyl)-3-p-tolylurea] | > 256 | > 256 | 128 (≈ 434 µM) | – | > 256 | 64 (≈ 217 µM) | 128 (≈ 434 µM) | 64 (≈ 217 µM) | 225 to 226 | – | – | – | – | – | –
8 | Cc1ccccc1NC(=O)Nc1ccccc1Cl [1gh, 1-(2-Chlorophenyl)-3-(2-methylphenyl)urea] | > 256 | > 256 | 256 (≈ 982 µM) | 32 (≈ 123 µM) | > 256 | 32 (≈ 123 µM) | 256 (≈ 982 µM) | 32 (≈ 123 µM) | 223 to 224 | – | – | – | – | – | –
9 | O=C(Nc1ccccc1)Nc1ccc(Cl)cc1 [1cf (MCC), 1-(4-Chlorophenyl)-3-phenylurea] | > 256 | > 256 | 64 (≈ 259 µM) | – | > 256 | 64 (≈ 259 µM) | 128 (≈ 519 µM) | 128 (≈ 519 µM) | – | – | – | – | – | – | –
10 | O=C(Nc1ccccc1)Nc1ccccc1 [1ff (NCC), 1,3-Diphenylurea] | > 256 | > 256 | > 256 | – | > 256 | 128 (≈ 603 µM) | > 256 | 64 (≈ 302 µM) | – | – | – | – | – | – | –
11 | Cc1cccc(C)c1NC(=O)Nc1ccc(Cl)c(Cl)c1 [1be, 1-(2,6-Dimethylphenyl)-3-(3,4-dichlorophenyl)urea] | > 256 | > 256 | 64 (≈ 207 µM) | 32 (≈ 103 µM) | > 256 | 32 (≈ 103 µM) | 128 (≈ 414 µM) | 128 (≈ 414 µM) | 249 to 250 | – | – | – | – | – | –
12 | COc1ccc(NC(=O)Nc2c(C)cccc2C)cc1 [1bd, 1-(4-Methoxyphenyl)-3-(2,6-dimethylphenyl)urea] | > 256 | > 256 | 128 (≈ 473 µM) | 16 (≈ 59.2 µM) | > 256 | 32 (≈ 118 µM) | > 256 | 16 (≈ 59.2 µM) | – | – | – | – | – | – | –
13 | Cc1ccccc1NC(=O)Nc1ccccc1F [1gl, 1-(2-Metylphenyl)-3-(2-fluorophenyl)urea] | > 256 | > 256 | 128 (≈ 524 µM) | 32 (≈ 131 µM) | > 256 | 64 (≈ 262 µM) | 128 (≈ 524 µM) | 32 (≈ 131 µM) | 224 to 225 | – | – | – | – | – | –
14 | O=C(Nc1ccccc1)Nc1ccc(F)c(F)c1 [1fj, 1-(3,4-Difluorophenyl)-3-phenylurea] | 256 (≈ 1030 µM) | 256 (≈ 1030 µM) | 128 (≈ 516 µM) | – | – | 128 (≈ 516 µM) | 256 (≈ 1030 µM) | 64 (≈ 258 µM) | 213 to 214 | – | – | – | – | – | –
15 | Cc1ccccc1NC(=O)Nc1ccc(Cl)c(Cl)c1 [1eg, 1-(3,4-Dichlorophenyl)-3-(2-methylphenyl)urea] | > 256 | > 256 | 64 (≈ 217 µM) | – | > 256 | 64 (≈ 217 µM) | 256 (≈ 867 µM) | 128 (≈ 434 µM) | – | – | – | – | – | – | –
16 | 1-(3-Chloro-4-fluorophenyl)-3-(2-methylphenyl)urea [1gk] | – | – | – | – | – | – | – | – | – | 256 | 256 | 64 | 128 | 256 | 64
17 | O=C(Nc1ccc(Cl)cc1)Nc1ccc(Cl)cc1 [1cc (DCC), 1-(4-Chlorophenyl)-3-(4-chlorophenyl)urea] | > 256 | > 256 | 128 (≈ 455 µM) | – | > 256 | 128 (≈ 455 µM) | 256 (≈ 911 µM) | 256 (≈ 911 µM) | – | – | – | – | – | – | –
18 | Cc1ccccc1NC(=O)Nc1ccccc1 [1fg, 1-(2-Methylphenyl)-3-phenylurea] | > 256 | 256 (≈ 1130 µM) | 64 (≈ 283 µM) | 16 (≈ 70.7 µM) | > 256 | 32 (≈ 141 µM) | 256 (≈ 1130 µM) | 16 (≈ 70.7 µM) | 241 to 242 | – | – | – | – | – | –
19 | Cc1cccc(C)c1NC(=O)Nc1ccccc1 [1bf, 1-(2,6-Dimethylphenyl)-3-phenylurea] | > 256 | > 256 | 64 (≈ 266 µM) | 16 (≈ 66.6 µM) | > 256 | 16 (≈ 66.6 µM) | > 256 | 16 (≈ 66.6 µM) | 240 to 241 | – | – | – | – | – | –
20 | COc1ccc(NC(=O)Nc2ccccc2)cc1 [1df, 1-(4-Methoxyphenyl)-3-phenylurea] | 256 (≈ 1060 µM) | > 256 | 128 (≈ 528 µM) | – | > 256 | 64 (≈ 264 µM) | 256 (≈ 1060 µM) | 128 (≈ 528 µM) | – | – | – | – | – | – | –
